Measurements published in patent US5478929A, “Bioconversion products of 27-hydroxy avermectin” (Merck & Co., Inc., priority 1994, dated 1995).

Experiments:
Type in all cases: in vivo
[1] = system: Trichostrongylus colubriformis; experiment: Anthelmintic activity against Trichostrongylus colubriformis; conditions: Table 4
[2] = system: Haemonchus contortus; experiment: Anthelmintic activity against Haemonchus contortus; conditions: for Activity profile, Haemonchus Contortus: Table 4
[3] = system: Trichostrongylus sigmodontis; experiment: Anthelmintic activity against Trichostrongylus sigmodontis (large bowel worm); conditions: for Activity profile, Trichostrongulus sigmodontis: Table 4; for Anthelmintic activity, Trichostrongylus sigmodontis: Table 2; on Anthelmintic activity, Trichostrongylus sigmodontis: key: A*: highly active; M: moderately active; I: inactive
Source text: The anthelmintic activity of the instant compound may be determined by orally administering via the feed, a sample of the individual compound, a mixture of such compound, a concentrated extract, and the like to a mouse which had been infected 3 days earlier with a gastrointestinal parasite. At 11, 12 and 13 days after the initiation of the medication, the feces of the mouse are examined for eggs, and on the next day the mouse is sacrificed and the number of worms present in the proximal portion of the small intestine are determined. An active compound is observed when there is a significant reduction of egg and worm counts when compared to infected, unmedicated controls.

[4] = system: Lucilla larva; experiment: Insecticidal activity, Lucilla larva; conditions: for Insecticidal activity, Lucilla larva 48 hrs: listed as 27-OH ivermectins Isomer B; on all read-outs here: key: A*: highly active; M: moderately active; I: inactive

| Molecule | Activity profile, Trichostrongulus colubriformis ([1]; 0.0625 mg/kg) | Activity profile, Trichostrongulus colubriformis ([1]; 0.125 mg/kg) | Activity profile, Trichostrongulus colubriformis ([1]; 0.25 mg/kg) | Activity profile, Haemonchus Contortus ([2]; 0.0625 mg/kg) | Activity profile, Haemonchus Contortus ([2]; 0.125 mg/kg) | Activity profile, Haemonchus Contortus ([2]; 0.25 mg/kg) | Activity profile, Trichostrongulus sigmodontis ([3]; 0.0625 mg/kg) | Activity profile, Trichostrongulus sigmodontis ([3]; 0.125 mg/kg) | Activity profile, Trichostrongulus sigmodontis ([3]; 0.25 mg/kg) | Activity profile, Trichostrongulus colubriformis ([1]; 1.00 mg/kg) | Activity profile, Haemonchus Contortus ([2]; 1.00 mg/kg) | Activity profile, Trichostrongulus sigmodontis ([3]; 1.00 mg/kg) | Anthelmintic activity, Trichostrongylus sigmodontis ([3]; 0.0625 mg/kg) | Insecticidal activity, Lucilla larva 24 hrs ([4]; 0.5 ppm) | Insecticidal activity, Lucilla larva 24 hrs ([4]; 1 ppm) | Anthelmintic activity, Haemonchus contortus ([2]; Table 2, 0.0625 mg/kg, listed as 27-OH ivermectins Isomer B) | Anthelmintic activity, Trichostrongylus sigmodontis ([3]; 0.125 mg/kg, listed as 27-OH ivermectins Isomer B) | Anthelmintic activity, Trichostrongylus sigmodontis ([3]; 0.25 mg/kg, listed as 27-OH ivermectins Isomer B) | Insecticidal activity, Lucilla larva 48 hrs ([4]; 0.5 ppm) | Insecticidal activity, Lucilla larva 48 hrs ([4]; 1 ppm) |
| --- | --- | --- | --- | --- | --- | --- | --- | --- | --- | --- | --- | --- | --- | --- | --- | --- | --- | --- | --- | --- |
| 4"-O-glucosyl, 27-OH -22,23 dihydro B1a isomer A [4"-O-glucosyl, 27-OH-22,23 dihydro B1a isomer A] | SLA (35-60% effective) | A (85-100% effective) | A (85-100% effective) | MA (60-85% effective) | A (85-100% effective) | A (85-100% effective) | A (85-100% effective) | A (85-100% effective) | A (85-100% effective) |  |  |  |  |  |  |  |  |  |  |  |
| 4"-O-glucosyl, 27-OH B1a [4"-O-glucosyl, 27-OH B1a isomer B] | I | A (85-100% effective) | A (85-100% effective) | I | A (85-100% effective) | A (85-100% effective) | A (85-100% effective) | A (85-100% effective) | A (85-100% effective) |  |  |  |  |  |  |  |  |  |  |  |
| 4"-O-glucosyl, 27-OH-22,23 dihydro B 1 a isomer B [4"-O-glucosyl, 27-OH-22,23 dihydro B1a isomer B] | SLA (35-60% effective) | MA (60-85% effective) | A (85-100% effective) | I | MA (60-85% effective) | A (85-100% effective) | A (85-100% effective) | A (85-100% effective) | A (85-100% effective) |  |  |  |  |  |  |  |  |  |  |  |
| CC1=C[C@H]2C(=O)O[C@H]3C[C@@H](C/C=C(\C)[C@@H](O)[C@@H](C)/C=C/C=C4\CO[C@H]([C@@H]1O)[C@@]42O)O[C@@]1(CC[C@H](C)[C@@H]([C@@H](C)C(C)O)O1)C3 (single isomer, unassigned) [27-OH-22,23 dihydro B1a aglycone isomer A, 27-hydroxy ivermectin aglycone] |  |  |  |  |  |  |  |  |  | I | I | I |  |  |  |  |  |  |  |  |
| CC1=C[C@H]2C(=O)O[C@H]3C[C@@H](C/C=C(\C)[C@@H](O)[C@@H](C)/C=C/C=C4\CO[C@H]([C@@H]1O)[C@@]42O)O[C@@]1(CC[C@H](C)[C@@H]([C@@H](C)C(C)O)O1)C3 (single isomer, unassigned) [27-OH-22,23 dihydro B1a aglycone isomer B, 27-hydroxy ivermectin aglycone] |  |  |  |  |  |  |  |  |  | I | I | I |  |  |  |  |  |  |  |  |
| CO[C@H]1C[C@H](O[C@H]2[C@H](C)O[C@@H](O[C@@H]3/C(C)=C/C[C@@H]4C[C@@H](C[C@]5(CC[C@H](C)[C@@H]([C@@H](C)C(C)O)O5)O4)OC(=O)[C@@H]4C=C(C)[C@@H](O)[C@H]5OC/C(=C\C=C\[C@@H]3C)[C@]54O)C[C@@H]2OC)O[C@@H](C)[C@@H]1O (single isomer, unassigned) [27-OH-22,23 dihydro B1a isomer A, 27-OH 22,23 dihydroavermectin B la] | A (85-100% effective) | A (85-100% effective) | A (85-100% effective) | A (85-100% effective) | A (85-100% effective) | A (85-100% effective) | I | A (85-100% effective) | A (85-100% effective) |  |  |  | I | I | I |  |  |  |  |  |
| CO[C@H]1C[C@H](O[C@H]2[C@H](C)O[C@@H](O[C@@H]3/C(C)=C/C[C@@H]4C[C@@H](C[C@]5(CC[C@H](C)[C@@H]([C@@H](C)C(C)O)O5)O4)OC(=O)[C@@H]4C=C(C)[C@@H](O)[C@H]5OC/C(=C\C=C\[C@@H]3C)[C@]54O)C[C@@H]2OC)O[C@@H](C)[C@@H]1O (single isomer, unassigned) [27-OH-22,23 dihydro B1a isomer B, 27-OH 22,23 dihydroavermectin B la] | I | A (85-100% effective) | A (85-100% effective) | MA (60-85% effective) | A (85-100% effective) | A (85-100% effective) | I | I | I |  |  |  | I | I | I | I | I | I | I | I |
| CO[C@H]1C[C@H](O[C@H]2[C@H](C)O[C@@H](O[C@@H]3/C(C)=C/C[C@@H]4C[C@@H](C[C@]5(C=C[C@H](C)[C@@H]([C@@H](C)C(C)O)O5)O4)OC(=O)[C@@H]4C=C(C)[C@@H](O)[C@H]5OC/C(=C\C=C\[C@@H]3C)[C@]54O)C[C@@H]2OC)O[C@@H](C)[C@@H]1O (single isomer, unassigned) [27-OHB1a isomer B, 27-OHB1a] | A (85-100% effective) | A (85-100% effective) | A (85-100% effective) | A (85-100% effective) | A (85-100% effective) | A (85-100% effective) |  |  | SLA (35-60% effective) |  |  |  |  |  |  |  |  |  |  |  |
| CC[C@H](C)[C@H]1O[C@]2(CC[C@@H]1C)C[C@@H]1C[C@@H](C/C=C(\C)[C@@H](O[C@H]3C[C@H](OC)[C@@H](O[C@H]4C[C@H](OC)[C@@H](O)[C@H](C)O4)[C@H](C)O3)[C@@H](C)/C=C/C=C3\CO[C@@H]4[C@H](O)C(C)=C[C@@H](C(=O)O1)[C@]34O)O2 [22,23 dihydro 8 B1a, 22,23 dihydro B1a, reference compound] | A (85-100% effective) | A (85-100% effective) | A (85-100% effective) | A (85-100% effective) | A (85-100% effective) | A (85-100% effective) | I | A (85-100% effective) | A (85-100% effective) |  |  |  |  |  |  |  |  |  |  |  |
| CC[C@H](C)[C@H]1O[C@]2(C=C[C@@H]1C)C[C@@H]1C[C@@H](C/C=C(\C)[C@@H](O[C@H]3C[C@H](OC)[C@@H](O[C@H]4C[C@H](OC)[C@@H](O)[C@H](C)O4)[C@H](C)O3)[C@@H](C)/C=C/C=C3\CO[C@@H]4[C@H](O)C(C)=C[C@@H](C(=O)O1)[C@]34O)O2 [B1a, avermectin B1a, reference compound] | A (85-100% effective) | A (85-100% effective) | A (85-100% effective) | A (85-100% effective) | A (85-100% effective) | A (85-100% effective) | SLA (35-60% effective) | A (85-100% effective) | A (85-100% effective) |  |  |  |  |  |  |  |  |  |  |  |
